The assay addresses T1, human α7 nAChR stably expressed in a HEK cell line (with human RIC-3) (Homo sapiens, UniProt P36544).
T1 construct: PrecisION hnAChR α7/RIC-3 (product name; no catalogue number given)
As to the kind of experiment: Automated patch-clamp electrophysiology functional assay (Assay A), IonFlux HT, whole-cell population patch. The class given is cell-based. The procedure: The α7 nAChR positive allosteric modulator (PAM) activity of the present compounds may be tested using assays known in the art. The α7 nAChR PAMs described herein have activities in an automated patch-clamp electrophysiology functional assay as described in the examples. The assay was performed using the IonFlux HT in a whole-cell, population patch configuration. See Golden et al. Assay Drug Dev. Technol. (2011) 9:608-619. The compounds were assessed for their ability to modulate the function of the human α7 nAChR stably expressed in a HEK cell line both in the presence, and in the absence of the natural α7 agonist acetylcholine. By performing a series of such measurements at different concentrations, the effective concentration of the α7 nAChR PAMs (EC50) was determined. See Spencer et al. Assay Drug Dev. Technol. (2012) 10:313-324.
Direct activation of α7 (agonism), and potentiation of acetylcholine-evoked α7 currents was determined as follows:
Automated Patch-Clamp Electrophysiology Functional Assay (Assay A)
Automated patch-clamp electrophysiology was performed using the IonFlux HT (Fluxion Biosciences Inc., San Francisco, Calif.) in the whole-cell, population patch configuration. Test compounds were assessed for their ability to modulate the function of the α7 nicotinic acetylcholine receptor both in the presence, and in the absence of the natural α7 agonist acetylcholine. A HEK cell line stably expressing both human RIC-3 and human α7 (PrecisION hnAChR α7/RIC-3, Eurofins Pharma, St. Charles, Mo.) was cultured in 175 cm^2 triple-layer tissue culture flasks to no more than 90% confluency in DMEM/F-12 growth media supplemented with 10% heat-inactivated fetal bovine serum, 1% non-essential amino acids, 0.625 μg/mL Puromycin, and 400 μg/mL Geneticin. Immediately prior to assay, cells were detached by first aspirating growth media, rinsing with Dulbecco's phosphate buffered saline, and then adding 10 mL of Accutase (Innovative Cell Technologies, San Diego, Calif.) to the flask and then incubating at 37° C. for 5 minutes. Detached cells were then recovered by the addition of 40 mL of CHO-serum-free media supplemented with 25 mM HEPES, and rocked gently in a 50 mL conical tube for 20 minutes prior to patch-clamp assay. After recovery, cells were pelleted by centrifugation at 1,000 RPM for 1 minute in a compact bench top centrifuge; recovery media was aspirated and cells were resuspended in external recording solution (150 mM NaCl, 5 mM KCl, 2 mM CaCl2, 1 mM MgCl2, 10 mM HEPES, 12 mM dextrose) to a density of 5.0×10^6 cells/mL. The cell suspension was added to the cell inlet wells on an IonFlux HT population patch plate which had previously been rinsed and primed with deionized H2O. Test compounds were serially diluted in DMSO and then resuspended to the final test concentration in external recording solution, with, or without 40 μM acetylcholine added to the external recording solution; test compounds were then transferred to the IonFlux HT population patch plate. Internal recording solution (110 mM TrisPO4, 28 mM TrisBase, 0.1 mM CaCl2, 2 mM MgCl2, 11 mM EGTA, 4 mM MgATP) was added to the internal recording solution inlet wells on the IonFlux HT patch plate previously loaded with cells and test compounds, and the plate loaded into the IonFlux HT instrument. A protocol was executed on the IonFlux HT to trap the cells, break into the cells, and establish the whole-cell recording configuration; cells were voltage-clamped at a holding potential of −60 mV for the duration of the experiment, all experiments were conducted at room temperature, and the IonFlux HT injection pressure was 8 psi for solution applications. Upon establishing the whole-cell configuration, external recording solution was perfused into the recording chambers for 120 seconds and then 40 μM acetylcholine was applied for 1 second and immediately washed off with external recording solution for 60 seconds. […]
(In general: The patch-clamp technique gives a direct electrical read-out from membranes.)

[1] abbreviates: automated patch-clamp electrophysiology functional assay (Assay A), potency class by EC50, read-out: α7 nAChR Potency.
Setting [2] is: HEK cell line stably expressing human α7 and human RIC-3, 40 μM acetylcholine, holding potential −60 mV, room temperature, read-out: α7 nAChR EC50.

Like-named read-outs stand apart in the source and are kept apart here.

T1 sequence (P36544 23-502): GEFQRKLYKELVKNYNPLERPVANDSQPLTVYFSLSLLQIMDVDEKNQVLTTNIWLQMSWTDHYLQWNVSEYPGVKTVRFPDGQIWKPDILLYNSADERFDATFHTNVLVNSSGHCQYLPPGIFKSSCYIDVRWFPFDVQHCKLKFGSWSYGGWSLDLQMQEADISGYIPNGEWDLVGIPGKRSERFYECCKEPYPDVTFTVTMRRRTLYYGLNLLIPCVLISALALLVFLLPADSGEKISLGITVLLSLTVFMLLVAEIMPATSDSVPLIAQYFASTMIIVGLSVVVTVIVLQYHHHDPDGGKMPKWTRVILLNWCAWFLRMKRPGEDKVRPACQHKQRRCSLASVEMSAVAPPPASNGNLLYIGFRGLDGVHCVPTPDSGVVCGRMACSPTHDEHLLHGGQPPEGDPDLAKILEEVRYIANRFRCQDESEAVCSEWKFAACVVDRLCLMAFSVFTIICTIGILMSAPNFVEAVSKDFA

In the case of `CC1(C)[C@H](c2ccc(S(N)(=O)=O)cc2)[C@H]1c1nnc(C2CCCCC2)s1` [Example F7], under setting [1], the EC50 lay within 500 to 5000 nM.

Regarding `CC1(c2nc(-c3ccc(F)cc3F)no2)CC1c1ccc(S(N)(=O)=O)cc1` (centres unmarked) [Example E3], the EC50 under setting [2] is 6900 nM and the EC50 under setting [1] fell in the range of 5000 to 50000 nM. For `CC1(C)[C@H](c2ccc(S(N)(=O)=O)cc2)[C@H]1c1nc(C2CC2)co1` [Example J5], the EC50 under setting [1] is 500 to 5000 nM. Consider `CC(Oc1cccc(Cl)c1)c1nc(C2C(c3ccc(S(N)(=O)=O)cc3)C2(C)C)no1` (centres unmarked) [Example I2], for which the EC50 under setting [1] is no more than 100 nM. For the molecule `CC1(C)[C@@H](c2ccc(S(N)(=O)=O)cc2)[C@@H]1c1nc(-c2cccc(F)c2)cs1` [Example K10], the EC50 was 3900 nM under setting [2] and 500 to 5000 nM under setting [1]. The matching figures for `Cc1cc(S(N)(=O)=O)ccc1[C@H]1C(c2nc(-c3ccccc3)no2)C1(C)C` (single isomer, unassigned; enantiomer a) [Example 38, 4-[trans-2,2-Dimethyl-3-(3-phenyl-1,2,4-oxadiazol-5-yl)cyclopropyl]-3-methylbenzenesulfonamide, enantiomer A]: 4300 nM and 500 to 5000 nM.

Take `Cc1cc(C2C(c3nc(-c4ccccc4)no3)C2(C)C)ccc1S(N)(=O)=O` (single isomer, unassigned) [Example M8]: under setting [1], the EC50 was in the range of 5000 to 50000 nM.

As to `Cc1cccc(F)c1-c1noc([C@@H]2C[C@H]2c2ccc(S(N)(=O)=O)cc2)n1` [Example C11], the EC50 under setting [1] was 100 to 500 nM. Same read-out and setting: to `NS(=O)(=O)c1ccc([C@@H]2C[C@H]2c2ncc(C3CCCC3)s2)cc1` [Example K15] belongs 100 to 500 nM. As to `NS(=O)(=O)c1ccc(C2C(c3nc(-c4ccccc4)no3)C2(Cl)Cl)cc1` (racemic) [Example M9], the EC50 reads like this: under setting [2], 140 nM; under setting [1], 100 to 500 nM. The matching figures for `CC1(c2ccc(S(N)(=O)=O)cc2)CC1c1nc(-c2ccc(F)cc2F)no1` (centres unmarked) [Example E4]: 1700 nM and 500 to 5000 nM. As to `NS(=O)(=O)c1ccc(C2C(c3cnc(-c4ccccc4)o3)C2(F)F)cc1` (racemic) [Example M1], the EC50 under setting [1] was in the range of 500 to 5000 nM. As to `CC1(C)[C@@H](c2ccc(S(N)(=O)=O)cc2)[C@@H]1c1noc(-c2ccncc2C(F)(F)F)n1` [Example I20], the EC50 under setting [2] turned out to be 450 nM. Turning to “4-{(1S,3S)-3-[2-(3-Fluorophenyl)-1-methyl-1H-imidazol-4-yl]-2,2-dimethylcycloproyl}benzenesulfonamide [Example 35]”, the EC50 under setting [2] stood at 4400 nM and the EC50 under setting [1] was in the range of 500 to 5000 nM.

`CC1(C)[C@H](c2ccc(S(N)(=O)=O)cc2)[C@H]1c1nc(-c2ccc(F)cc2C(F)(F)F)no1` [Example A2]: the EC50 runs as follows: under setting [2], 1700 nM; under setting [1], 500 to 5000 nM. For `CC(C)c1csc([C@H]2[C@H](c3ccc(S(N)(=O)=O)cc3)C2(C)C)n1` [Example K11], in that order: 1100 nM and 500 to 5000 nM. The matching figures for `CC1(C)[C@@H](c2ccc(S(N)(=O)=O)cc2)[C@@H]1c1nc(-c2cc(F)ccc2F)co1` [Example K2]: 1600 nM and 500 to 5000 nM.
